In BindingDB's records for patent US20250313563 (The Broad Institute, 2025):
“And” between values parts separate entries of the source, which are not always exact repeats. Identical values can stand only once.

How the values were obtained:
[1] = molecular target: Glycogen synthase kinase-3 beta (Homo sapiens, UniProt P49841); experiment: TR-FRET Assay
Procedure, shortened: (§1)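 Kinase activity, measured after a 30-minute compound preincubation, was stopped with EDTA and quantified by TR-FRET using a Tb-labelled pSer641 antibody paired with streptavidin-d2.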

[2] = molecular target: Glycogen synthase kinase-3 alpha (Homo sapiens, UniProt P49840); experiment: TR-FRET Assay
Sequence of Glycogen synthase kinase-3 alpha (P49840 whole entry): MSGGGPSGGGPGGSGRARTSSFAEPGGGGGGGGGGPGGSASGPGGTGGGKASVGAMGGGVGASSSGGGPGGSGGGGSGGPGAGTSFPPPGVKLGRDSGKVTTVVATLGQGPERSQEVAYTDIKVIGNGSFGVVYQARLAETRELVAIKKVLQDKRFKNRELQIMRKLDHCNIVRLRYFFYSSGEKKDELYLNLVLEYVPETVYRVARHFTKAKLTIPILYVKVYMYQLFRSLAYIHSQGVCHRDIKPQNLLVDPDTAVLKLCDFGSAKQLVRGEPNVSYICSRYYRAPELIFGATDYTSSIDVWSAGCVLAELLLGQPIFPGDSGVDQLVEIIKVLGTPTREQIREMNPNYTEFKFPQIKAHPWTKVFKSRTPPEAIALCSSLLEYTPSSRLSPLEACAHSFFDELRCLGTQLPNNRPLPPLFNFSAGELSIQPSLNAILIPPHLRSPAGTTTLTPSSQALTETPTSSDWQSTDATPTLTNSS
Procedure, shortened: as §1

Sequence of Glycogen synthase kinase-3 beta (P49841 whole entry): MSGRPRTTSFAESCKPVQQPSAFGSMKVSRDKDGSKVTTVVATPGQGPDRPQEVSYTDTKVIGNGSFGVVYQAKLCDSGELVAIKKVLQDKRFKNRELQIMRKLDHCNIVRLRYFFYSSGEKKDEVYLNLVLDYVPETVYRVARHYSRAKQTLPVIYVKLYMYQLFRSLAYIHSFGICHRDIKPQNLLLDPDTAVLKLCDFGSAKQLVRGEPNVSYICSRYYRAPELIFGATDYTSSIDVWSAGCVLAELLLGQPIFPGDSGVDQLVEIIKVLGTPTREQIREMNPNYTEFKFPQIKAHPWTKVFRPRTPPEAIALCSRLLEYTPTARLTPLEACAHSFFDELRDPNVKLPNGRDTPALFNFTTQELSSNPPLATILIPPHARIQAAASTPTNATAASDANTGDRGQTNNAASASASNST

| Compound | IC50 [1] | IC50 [2] |
| --- | --- | --- |
| CC[C@@]1(c2cccc(C(F)(F)F)c2)C2=CN=NC2NC2=C1C(=O)N(C)CC2 (stereo partly specified) [US20250313563, Compound 917283] | > 5000 nM | > 5000 nM |
| CC(C)(C)CC1N=NC2=C1[C@@](C)(c1cccc(S(=O)(=O)C(F)(F)F)c1)C1=C(CC(C)(C)CC1=O)N2 (stereo partly specified) [US20250313563, Compound 126396] | > 5000 nM | > 5000 nM |
| CC1(C)CC(=O)C2=C(C1)NC1=C(CN=N1)C21CCN(S(=O)(=O)c2ccc(F)cc2)CC1 [US20250313563, Compound 893311] | < 100 nM and 1000 to 5000 nM | < 100 nM and 100 to 1000 nM |
| CC[C@]1(c2ccccc2)C2=CN=NC2NC2=C1C(=O)[C@@H](F)C(C)(C)C2 (stereo partly specified) [US20250313563, Compound 826769] | > 5000 nM | > 5000 nM |
| CC[C@]1(c2cccc(-c3c(F)cncc3OC)c2)C2=C(N=NC2)NC2=C1C(=O)C(C)(C)C2 [US20250313563, Compound 952564] | < 100 nM and 1000 to 5000 nM | < 100 nM and 100 to 1000 nM |
| CC[C@]1(c2ccccc2)C2=CN=NC2NC2=C1C(=O)[C@@H](C)C[C@H]2C (stereo partly specified) [US20250313563, Compound 909219] | > 5000 nM | > 5000 nM |
| CCC1(c2ccccc2)C2=C(N=NC2)NC2=C1C(=O)N(C)CC2 (stereo unspecified) [US20250313563, Compound 883867] | > 5000 nM | > 5000 nM |
| CC[C@]1(c2cccc(C(F)(F)F)c2)C2=CN=NC2NC2=C1C(=O)NC1(CCC1)C2 (stereo partly specified) [US20250313563, Compound 914308] | < 100 nM and 1000 to 5000 nM | < 100 nM and 100 to 1000 nM |
| CC[C@@]1(c2cccc(N3CCCCC3)c2)C2=C(CC(C)(C)CC2=O)NC2N=NC(C(F)(F)F)=C21 (stereo partly specified) [US20250313563, Compound 816799] | 1000 to 5000 nM | 100 to 1000 nM |
| CC(C)S(=O)(=O)N1CCC2(CC1)C1=C(N=NC1)NC1=C2C(=O)CC(C)(C)[C@H]1F [US20250313563, Compound 951701] | < 100 nM and 1000 to 5000 nM | < 100 nM and 100 to 1000 nM |
| CC[C@]1(c2cccc(N(C)C(=O)c3ccn(C)n3)c2)C2=CN=NC2NC2=C1C(=O)CC(C)(C)C2 (stereo partly specified) [US20250313563, Compound 929455] | > 5000 nM | > 5000 nM |
| CC[C@@]1(c2cccc(-c3c(F)cncc3Cl)c2)C2=CN=NC2NC2=C1C(=O)NC(C)(C)C2 (stereo partly specified) [US20250313563, Compound 948371] | < 100 nM and 100 to 1000 nM | < 100 nM and 100 to 1000 nM |
| CN1C[C@]2(C3=C(CC(C)(C)CC3=O)NC3N=NC(CC(C)(C)C)=C32)c2ccccc21 (stereo partly specified) [US20250313563, Compound 125978] | 100 to 1000 nM | 1000 to 5000 nM |
| CCC1(c2cccc(N3CC4CCC(C4)C3)c2)C2=CN=NC2NC2=C1C(=O)CC(C)(C)C2 (stereo unspecified) [US20250313563, Compound 885099] | 1000 to 5000 nM | 100 to 1000 nM |
| CC[C@@]1(c2cccc(C(C)C)c2)C2=CN=NC2NC2=C1C(=O)CC(C)(C)C2 (stereo partly specified) [US20250313563, Compound 810375] | > 5000 nM | 1000 to 5000 nM |
| CC[C@]1(c2cccc(-c3c(C#N)cnn3C)c2)C2=C(CC(C)(C)NC2=O)NC2N=NC(C)=C21 (stereo partly specified) [US20250313563, Compound 952410] | < 100 nM and 1000 to 5000 nM | < 100 nM and 100 to 1000 nM |
| CC[C@]1(c2cccc(-c3ccnc(C)c3)c2)C2=CN=NC2NC2=C1C(=O)CC(C)(C)C2 (stereo partly specified) [US20250313563, Compound 865169] | 100 to 1000 nM and > 5000 nM | < 100 nM and 100 to 1000 nM |
| CC[C@]1(c2cccc(C3=C4CC=C(Cl)C=C4N=CC3)c2)C2=CN=NC2NC2=C1C(=O)NC(C)(C)C2 (stereo partly specified) [US20250313563, Compound 948362] | > 5000 nM | > 5000 nM |
| CC[C@@]1(c2cccc(N(C)c3nccc(OC)n3)c2)C2=CN=NC2NC2=C1C(=O)CC(C)(C)C2 (stereo partly specified) [US20250313563, Compound 947337] | 1000 to 5000 nM | 100 to 1000 nM |
| CC[C@]1(c2cccc(-c3ccnn3C)c2)C2=CN=NC2NC2=C1C(=O)NC1(CCCC1)C2 (stereo partly specified) [US20250313563, Compound 948019] | > 5000 nM | 1000 to 5000 nM |
| CC[C@@]1(c2cccc(N(c3cccnc3)C(C)C)c2)C2=CN=NC2NC2=C1C(=O)CC(C)(C)C2 (stereo partly specified) [US20250313563, Compound 917087] | 1000 to 5000 nM | 100 to 1000 nM |
| CC1(C)CC(=O)C2=C(C1)NC1N=NC=C1C21CCCN(C(=O)c2ccccc2)CC1 (stereo unspecified) [US20250313563, Compound 889577] | 1000 to 5000 nM | 1000 to 5000 nM |
| CCC1(c2cccc(N3CCOCC3)c2)C2=CN=NC2NC2=C1C(=O)NC(C)(C)C2 (stereo unspecified) [US20250313563, Compound 945602] | > 5000 nM | 1000 to 5000 nM |
| CC1CC(=O)C2=C(C1)NC1=C(CN=N1)C21CCOCC1 (stereo unspecified) [US20250313563, Compound 884112] | 100 to 1000 nM | 100 to 1000 nM |
| CC[C@]1(c2cccc(N(C)c3cc(C)ccn3)c2)C2=CN=NC2NC2=C1C(=O)CC(C)(C)C2 (stereo partly specified) [US20250313563, Compound 945616] | > 5000 nM | > 5000 nM |
| CC1(C)CC(=O)C2=C(C1)NC1=C(CN=N1)[C@@]21CCCOCC1 [US20250313563, Compound 874536] | 1000 to 5000 nM | 100 to 1000 nM |

Continued, values first:

| IC50 [1] | IC50 [2] | Compound |
| --- | --- | --- |
| 1000 to 5000 nM | 100 to 1000 nM | CCC1(c2cccc(C(C)(C)F)c2)C2=CN=NC2NC2=C1C(=O)N(C)CC2 (stereo unspecified) [US20250313563, Compound 913178] |
| 1000 to 5000 nM | 100 to 1000 nM | CC1(C)CC(=O)C2=C(C1)NC1=C(CN=N1)[C@]21CCO[C@@H](C(C)(C)C)C1 [US20250313563, Compound 912106] |
| 1000 to 5000 nM | 100 to 1000 nM | CC[C@H]1C[C@]2(CCO1)C1=C(N=NC1)NC1=C2C(=O)CC(C)(C)C1 [US20250313563, Compound 907329] |
| 1000 to 5000 nM | 100 to 1000 nM | CC[C@@]1(c2cccc(-c3ccnc(N4CCOCC4)c3)c2)C2=CN=NC2NC2=C1C(=O)NC(C)(C)C2 (stereo partly specified) [US20250313563, Compound 948825] |
| 1000 to 5000 nM | 100 to 1000 nM | CCC1(c2cccc(CN(C)C(C)=O)c2)C2=CN=NC2NC2=C1C(=O)CC(C)(C)C2 (stereo unspecified) [US20250313563, Compound 865194] |
| < 100 nM | < 100 nM | CC[C@@]1(c2cccc(-c3ccncc3)c2)C2=C(CC(C)(C)CC2=O)NC2N=NC(C)=C21 (stereo partly specified) [US20250313563, Compound 913015] |
| 100 to 1000 nM | < 100 nM | CCC1(c2cccc(-c3ncnn3C)c2)C2=CN=NC2NC2=C1C(=O)CC(C)(C)C2 (stereo unspecified) [US20250313563, Compound 943532] |
| < 100 nM | < 100 nM | CCC1(c2cccc(C(F)(F)F)c2)C2=C(CC(C)(C)CC2=O)NC2N=NC(C)=C21 (stereo unspecified) [US20250313563, Compound 801321] |
| 100 to 1000 nM | < 100 nM | CC[C@]1(c2cccc(N3CCc4ccncc43)c2)C2=CN=NC2NC2=C1C(=O)CC(C)(C)C2 (stereo partly specified) [US20250313563, Compound 912003] |
| 1000 to 5000 nM | 100 to 1000 nM | CC[C@]1(c2cccc(-c3ccnn3C)c2)C2=C(CC(C)(C)CC2=O)NC2N=NC(C(F)(F)F)=C21 (stereo partly specified) [US20250313563, Compound 947365] |
| 100 to 1000 nM | < 100 nM | CC1(C)CC(=O)C2=C(C1)NC1=C(CN=N1)C21CC(C(F)(F)F)C1 (stereo unspecified) [US20250313563, Compound 874527] |
| > 5000 nM | 100 to 1000 nM | CCC1(c2cccc(CN(C)C(=O)C(C)C)c2)C2=CN=NC2NC2=C1C(=O)CC(C)(C)C2 (stereo unspecified) [US20250313563, Compound 865195] |
| < 100 nM | < 100 nM | CC1(C)CC(=O)C2=C(C1)NC1N=NC=C1C21CCCN(S(=O)(=O)C2CC2)CC1 (stereo unspecified) [US20250313563, Compound 917137] |
| 100 to 1000 nM | 100 to 1000 nM | C[C@H]1C[C@@]2(CCO1)C1=C(N=NC1)NC1=C2C(=O)CC(C)(C)C1 [US20250313563, Compound 924307] |
| < 100 nM | < 100 nM | CC1(C)CC(=O)C2=C(C1)NC1=C(CN=N1)C21CCN(S(=O)(=O)c2cnn(CCF)c2)CC1 [US20250313563, Compound 947903] |
| < 100 nM and 1000 to 5000 nM | < 100 nM | Cc1cccc(S(=O)(=O)N2CC[C@]3(C2)C2=C(N=NC2)NC2=C3C(=O)CC(C)(C)C2)c1 [US20250313563, Compound 951864] |
| 100 to 1000 nM | < 100 nM | CCC1(c2cccc(C(F)(F)F)c2)C2=C(N=NC2)NC2=C1C(=O)NC2(C)C (stereo unspecified) [US20250313563, Compound 912104] |
| 100 to 1000 nM | < 100 nM | COc1ccc(S(=O)(=O)N2CCCC3(CC2)C2=CN=NC2NC2=C3C(=O)CC(C)(C)C2)cc1 (stereo unspecified) [US20250313563, Compound 917141] |
| < 100 nM | < 100 nM | CC(C)Oc1ccc(S(=O)(=O)N2CCC3(CC2)C2=C(N=NC2)NC2=C3C(=O)CC(C)(C)C2)cn1 [US20250313563, Compound 945676] |
| 100 to 1000 nM | < 100 nM | CCC1(c2cccc(-c3cnn4c3CCCC4)c2)C2=CN=NC2NC2=C1C(=O)NC(C)(C)C2 (stereo unspecified) [US20250313563, Compound 945603] |
| 100 to 1000 nM | < 100 nM | CC[C@H]1CCN1c1cccc([C@@]2(CC)C3=CN=NC3NC3=C2C(=O)CC(C)(C)C3)c1 (stereo partly specified) [US20250313563, Compound 911969] |
| 100 to 1000 nM | < 100 nM | CC[C@]1(c2cccc(Br)c2)C2=CN=NC2NC2=C1C(=O)C[C@H](C)C2 (stereo partly specified) [US20250313563, Compound 810486] |
| < 100 nM | < 100 nM | CC1(C)CC2=C(C(=O)N1)C1(CCN(S(=O)(=O)c3ccc(F)cc3)CC1)C1=C(N=NC1)N2 [US20250313563, Compound 943963] |
| 100 to 1000 nM | < 100 nM | CCC1(c2cccc(N(C)c3ccc(F)nc3)c2)C2=CN=NC2NC2=C1C(=O)CC(C)(C)C2 (stereo unspecified) [US20250313563, Compound 917152] |
| < 100 nM | < 100 nM | CC(C)n1ccc(S(=O)(=O)N2CCC3(CC2)C2=C(N=NC2)NC2=C3C(=O)CC(C)(C)C2)n1 [US20250313563, Compound 947258] |
| 100 to 1000 nM | < 100 nM | CC[C@@]1(c2cccc(C(F)(F)F)c2)C2=CN=NC2NC2=C1C(=O)N[C@H](C)C2 (stereo partly specified) [US20250313563, Compound 912098] |
| 100 to 1000 nM | < 100 nM | CC1(C)CC(=O)C2=C(NC3=C(CN=N3)C23CCN(S(=O)(=O)c2ccccc2C(F)F)CC3)[C@H]1F [US20250313563, Compound 951839] |
